In patent US12679878B2, “CRF2 receptor agonists and their use in therapy” (SANOFI, priority 2020, dated 2026):
In brackets after ≈: the same amount, converted by molar mass. Read-outs that look alike come from different tables or passages of the source. Starred links: 1 amine or outer side, 2 acyl side, 3 side chain; linkers in the order of their positions; H or OH if unused. Non-standard residues stand in square brackets, D forms with d. Residues, ends and D or L forms follow the SMILES beside them. Groups on a side chain read outwards from the residue. *: point of attachment. C18 diacid = O=C(O)CCCCCCCCCCCCCCCCC(=O)*; γGlu = O=C(O)[C@H](CCC(=O)[*:2])N[*:1]; AEEA = NCCOCCOCC(=O)O; Aib = CC(C)(N)C(=O)O

Assays:
CRF1R receptor = molecular target: T1, CRF1R receptor (Homo sapiens, UniProt P34998); experiment: cAMP activity at anti-target CRF1R, CRF1R-overexpression CHO cell line (Example 9); assay type: cell-based; conditions: CRF1R-overexpression CHO cell line; for EC50: 0% HSA; for Emax: read-out: Emax (%)
T1 construct: host or cells: CHO-K1 clone 2
T1 sequence (P34998 24-415): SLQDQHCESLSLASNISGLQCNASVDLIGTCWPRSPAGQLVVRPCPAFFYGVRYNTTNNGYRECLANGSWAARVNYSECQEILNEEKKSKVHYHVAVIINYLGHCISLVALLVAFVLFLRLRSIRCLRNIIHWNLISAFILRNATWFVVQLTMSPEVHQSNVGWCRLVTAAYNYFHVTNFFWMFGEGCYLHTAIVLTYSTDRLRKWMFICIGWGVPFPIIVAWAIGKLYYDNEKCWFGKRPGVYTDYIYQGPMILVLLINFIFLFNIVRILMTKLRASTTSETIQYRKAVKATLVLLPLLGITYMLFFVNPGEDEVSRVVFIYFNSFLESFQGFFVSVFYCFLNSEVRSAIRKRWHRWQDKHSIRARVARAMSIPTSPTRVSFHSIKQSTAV
Procedure, shortened: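 Using thawed CRF1R-overexpressing CHO cells at 2000 per well, compound is applied for 30 min at RT in HBSS/HEPES buffer with IBMX. Cellular cAMP content is determined via HTRF, and percent activity is calculated against 1000 nM UCN2 defined as 100%.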

[1] = Chemical stability, purity loss by UPLC-UV after 28 days at 40° C. vs 5° C., pH 4.5 acetate buffer (Example 12); assay type: physicochemical; conditions: 28 days 40° C. vs 5° C.; pH 4.5, 20 mM acetate buffer; 300 μM
Procedure, shortened: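 300 μM compound (purity-corrected) in 20 mM acetate buffer, pH 4.5, stored 28 days at 5 and 40° C. Purity by UPLC-UV as compound peak area over total peak area. Value is the purity difference between 5° C. and 40° C. samples, relative to the 5° C. purity, in percent.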

[2] = Solubility in buffer systems by UPLC-UV (Example 13); assay type: physicochemical
Procedure, shortened: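 Quantitation used UV peak area from UPLC of the 1:10-diluted supernatant, set against a reference-compound standard curve with extinction coefficients adjusted for amino acid sequence.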

rat CRF2R α receptor = experiment: cAMP agonism at rat CRF2R α receptor in A7R5 rat aortic smooth muscle cells (Example 8); assay type: cell-based; conditions: cAMP HTRF, A7R5 rat aortic smooth muscle cell line, 0% HSA
Procedure, shortened: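 Potency (EC50) is the concentration reaching half-maximal activation, with responses scaled so that 1000 nM urocortin 2 equals 100%. Intracellular cAMP was quantified by homogeneous time-resolved fluorescence at 665/620 nm, 1 h after lysis-buffer reagents. Compound stimulation lasted 30 min at room temperature on 2000 IBMX-treated (2 mM) cells per well in HEPES-buffered HBSS.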

human CRF2α receptor = molecular target: T2, human CRF2α receptor (Homo sapiens, UniProt Q13324); experiment: cAMP agonism at human CRF2 α receptor in TeloHEAC cells (Example 7); assay type: cell-based; conditions: cAMP HTRF, TeloHEAC cells stably expressing human CRF2 α
T2 construct: expressed in transfected cells; host or cells: TeloHEAC
T2 sequence (Q13324 1-411): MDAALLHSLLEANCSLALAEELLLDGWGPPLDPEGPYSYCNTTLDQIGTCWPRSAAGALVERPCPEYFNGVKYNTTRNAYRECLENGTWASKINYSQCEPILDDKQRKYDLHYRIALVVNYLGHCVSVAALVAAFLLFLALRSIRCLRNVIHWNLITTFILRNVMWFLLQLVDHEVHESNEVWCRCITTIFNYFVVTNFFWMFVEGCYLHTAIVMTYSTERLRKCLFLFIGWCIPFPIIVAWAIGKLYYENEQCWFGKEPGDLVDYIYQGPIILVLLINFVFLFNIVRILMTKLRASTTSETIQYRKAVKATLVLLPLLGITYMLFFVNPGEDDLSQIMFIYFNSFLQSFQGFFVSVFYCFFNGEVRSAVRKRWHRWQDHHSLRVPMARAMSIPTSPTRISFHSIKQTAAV
Procedure, shortened: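 Thawed frozen stably transfected cells in HBSS/20 mM HEPES (0% or 0.1% HSA) plus 2 mM IBMX were exposed to compound at 2000 cells/well for 30 min at room temperature. Intracellular cAMP was read by HTRF (665/620 nm ratio) after 1 h lysis; EC50 was derived with 1000 nM urocortin 2 set as 100%.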

[3] = pH 4.5, Solubility in Buffer A [mg/ml]
[4] = pH 4.5, Solubility in Buffer B [mg/ml]
[5] = pH 7.4, Solubility in Buffer C [mg/ml]
[6] = 0% HSA, read-out: EC50 [nM], 0% HSA
[7] = 0.1% HSA, read-out: EC50 [nM], 0.1% HSA

| EC50 (CRF1R receptor) [nM] | Emax (CRF1R receptor) [%] | Relative purity loss [%] [1] [%] | solubility at 1 h [2, 3] [µg/mL] | solubility at 1 h [2, 4] [µg/mL] | solubility at 1 h [2, 5] [µg/mL] | EC50 (rat CRF2R α receptor) [nM] | EC50 (human CRF2α receptor; [6]) [nM] | EC50 (human CRF2α receptor; [7]) [nM] | SMILES |
| --- | --- | --- | --- | --- | --- | --- | --- | --- | --- |
| > 1000 | 21.8 | 3.10 | > 8400 | > 8600 | 7800 (≈ 1510 µM) | 0.38 | 0.05 | 2.41 | CC[C@H](C)[C@H](N)C(=O)N[C@H](C(=O)N[C@@H](CC(C)C)C(=O)N[C@@H](CO)C(=O)N[C@@H](CC(C)C)C(=O)N[C@@H](CC(=O)O)C(=O)N[C@@H](C(=O)N1CCC[C@H]1C(=O)N[C@H](C(=O)N[C@@H](CCCCN)C(=O)N[C@@H](CC(C)C)C(=O)N[C@@H](CCCCNC(=O)COCCOCCNC(=O)COCCOCCNC(=O)CC[C@H](NC(=O)CCCCCCCCCCCCCCCCC(=O)O)C(=O)O)C(=O)N[C@@H](CCC(N)=O)C(=O)N[C@H](C(=O)N[C@@H](CC(C)C)C(=O)N[C@@H](CC(C)C)C(=O)N[C@@H](CCCCN)C(=O)N[C@@H](CCC(N)=O)C(=O)N[C@@H](CCC(=O)O)C(=O)N[C@@H](CCCNC(=N)N)C(=O)N[C@@H](CCC(N)=O)C(=O)N[C@@H](CCCCN)C(=O)N[C@@H](CCCCN)C(=O)NC(C)(C)C(=O)N[C@@H](CCCNC(=N)N)C(=O)N[C@@H](CCC(N)=O)C(=O)N[C@@H](CCCCN)C(=O)N[C@@H](C)C(=O)N[C@@H](CCC(=O)O)C(=O)N[C@@H](CCCCN)C(=O)N[C@@H](CC(N)=O)C(=O)N[C@@H](CCCCN)C(=O)N[C@@H](CCC(N)=O)C(=O)N[C@H](C(=O)N[C@@H](CC(C)C)C(=O)N[C@@H](C)C(=O)N[C@@H](CCC(N)=O)C(=O)N[C@H](C(N)=O)C(C)C)[C@@H](C)CC)[C@@H](C)CC)[C@@H](C)CC)C(C)C)C(C)C [compound 136] (H-IVLSLD[dV]PIKLK([AEEA-AEEA-γGlu-C18 diacid])QILLKQERQKK[Aib]RQKAEKNKQILAQV-NH2; N-terminus assumed) |
| > 1000 | 22.5 | 4.80 | > 8600 | > 8400 | > 8700 | 0.14 | 0.04 | 1.78 | CC[C@H](C)[C@H](N)C(=O)N[C@H](C(=O)N[C@@H](CC(C)C)C(=O)N[C@@H](CO)C(=O)N[C@@H](CC(C)C)C(=O)N[C@@H](CC(=O)O)C(=O)N[C@@H](C(=O)N1CCC[C@H]1C(=O)N[C@H](C(=O)N[C@@H](CCCCN)C(=O)N[C@@H](CC(C)C)C(=O)N[C@@H](CCCCNC(=O)COCCOCCNC(=O)COCCOCCNC(=O)CC[C@H](NC(=O)CCCCCCCCCCCCCCCCC(=O)O)C(=O)O)C(=O)N[C@@H](CCC(N)=O)C(=O)N[C@H](C(=O)N[C@@H](CC(C)C)C(=O)N[C@@H](CC(C)C)C(=O)N[C@@H](CCCCN)C(=O)N[C@@H](CCC(N)=O)C(=O)N[C@@H](CCC(=O)O)C(=O)N[C@@H](CCCNC(=N)N)C(=O)N[C@@H](CCC(N)=O)C(=O)N[C@@H](CCCCN)C(=O)N[C@@H](CCCCN)C(=O)N[C@@H](CCC(N)=O)C(=O)N[C@@H](CCCNC(=N)N)C(=O)N[C@@H](CCC(=O)O)C(=O)N[C@@H](CCC(N)=O)C(=O)N[C@@H](C)C(=O)N[C@@H](CCC(=O)O)C(=O)N[C@@H](CCCCN)C(=O)N[C@@H](CC(N)=O)C(=O)N[C@@H](CCCCN)C(=O)N[C@@H](CCC(N)=O)C(=O)N[C@H](C(=O)N[C@@H](CC(C)C)C(=O)N[C@@H](CCC(=O)O)C(=O)N[C@@H](CCC(N)=O)C(=O)N[C@H](C(N)=O)C(C)C)[C@@H](C)CC)[C@@H](C)CC)[C@@H](C)CC)C(C)C)C(C)C [compound 137] (H-IVLSLD[dV]PIKLK([AEEA-AEEA-γGlu-C18 diacid])QILLKQERQKKQREQAEKNKQILEQV-NH2; N-terminus assumed) |
